{
  "source": "patent US20040229791A1",
  "about": "“Compositions and methods of modulating TGF-beta activity by fatty acids” (priority 2002, published 2004)",
  "target": "T1, TGF-β1-α2M* complex (Homo sapiens, UniProt P01023)",
  "T1 construct": "was purified from pooled citrate-treate human plasma; from tissue; host or cells: pooled citrate-treated human plasma",
  "T1 sequence (P01023 24-1474)": "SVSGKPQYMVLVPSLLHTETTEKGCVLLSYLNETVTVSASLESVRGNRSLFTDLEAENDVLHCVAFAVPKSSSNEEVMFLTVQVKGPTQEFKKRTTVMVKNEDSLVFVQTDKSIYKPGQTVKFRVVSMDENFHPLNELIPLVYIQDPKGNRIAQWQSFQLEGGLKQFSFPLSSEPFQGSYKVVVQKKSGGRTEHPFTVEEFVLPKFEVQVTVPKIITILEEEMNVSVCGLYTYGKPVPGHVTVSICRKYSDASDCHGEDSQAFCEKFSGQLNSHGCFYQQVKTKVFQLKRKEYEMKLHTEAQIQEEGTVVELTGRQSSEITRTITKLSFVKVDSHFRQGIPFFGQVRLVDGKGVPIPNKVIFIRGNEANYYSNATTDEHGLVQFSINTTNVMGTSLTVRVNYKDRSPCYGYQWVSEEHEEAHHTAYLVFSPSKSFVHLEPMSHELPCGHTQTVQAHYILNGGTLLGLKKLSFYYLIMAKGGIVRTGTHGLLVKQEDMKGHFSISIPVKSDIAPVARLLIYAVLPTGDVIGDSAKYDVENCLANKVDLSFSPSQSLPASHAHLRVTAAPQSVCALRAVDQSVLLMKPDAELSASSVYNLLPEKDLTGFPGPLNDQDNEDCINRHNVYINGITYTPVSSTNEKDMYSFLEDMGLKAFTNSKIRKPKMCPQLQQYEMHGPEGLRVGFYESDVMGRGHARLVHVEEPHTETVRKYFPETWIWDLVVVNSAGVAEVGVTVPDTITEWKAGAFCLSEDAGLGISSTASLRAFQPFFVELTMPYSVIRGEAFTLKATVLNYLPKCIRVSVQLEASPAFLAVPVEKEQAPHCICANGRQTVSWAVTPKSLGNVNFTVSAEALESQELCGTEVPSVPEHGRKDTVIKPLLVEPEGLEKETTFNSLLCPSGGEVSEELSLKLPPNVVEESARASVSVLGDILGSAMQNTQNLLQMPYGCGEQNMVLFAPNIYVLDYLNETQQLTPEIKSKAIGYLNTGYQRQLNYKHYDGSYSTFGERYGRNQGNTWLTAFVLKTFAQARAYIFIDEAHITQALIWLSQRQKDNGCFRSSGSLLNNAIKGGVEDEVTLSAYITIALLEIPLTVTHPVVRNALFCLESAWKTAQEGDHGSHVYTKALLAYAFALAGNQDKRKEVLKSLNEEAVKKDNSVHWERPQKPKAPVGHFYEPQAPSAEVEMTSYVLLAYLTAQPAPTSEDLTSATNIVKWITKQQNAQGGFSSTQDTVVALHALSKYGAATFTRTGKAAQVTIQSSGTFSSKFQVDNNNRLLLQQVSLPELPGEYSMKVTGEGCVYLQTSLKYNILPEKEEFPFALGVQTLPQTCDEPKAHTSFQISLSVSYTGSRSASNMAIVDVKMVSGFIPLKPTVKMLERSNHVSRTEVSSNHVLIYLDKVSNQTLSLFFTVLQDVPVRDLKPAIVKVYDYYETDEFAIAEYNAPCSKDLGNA",
  "assay": "Inhibition of 125I-TGF-β1 and α2M* complex formation (5% non-denaturing PAGE, autoradiography)",
  "format": "binding",
  "conditions": "~1 nM 125I-TGF-β1, 10 μg α2M* in 0.05 ml, 30 min room temperature, non-denaturing PAGE; read-out: IC50 for inhibiting complex formation between TGF-β1 and α2M*",
  "protocol": "Saturated and unsaturated fatty acids are present in plasma and tissues (25,26). The effects of various concentrations of saturated fatty acids on the formation of complexes between ^125I-TGF ? β1 and ? 2M* were examined. ^125I-TGF- ? 1 (1 nM) was incubated μg/ml) in the presence of various concentrations of n-caprylic acid ([…]), lauric acid (12 carbon atoms), myristic acid (14 carbon atoms), palmitic acid (16 carbon atoms) and stearic acid (18 carbon atoms). After 30 min at room temperature, the reaction mixture was analyzed by 5% non-denaturing PAGE and autoradiography, a standard method form determining complex formation between TGF-β and α2M* (12). […] At 100 μM, it inhibited 20% of the complex formation between TGF ? β1 and α2M*. Esterification consistently abolished the inhibitory activities of the fatty acids.\nComplex formation of ^125I-TGF-β and ? 2M*—The reaction mixture contained 10 μg of . α2M*, ˜1 nM of ^125I-TGF- ? 1, ^125I-TGF ? β2 or ^125I-TGF ? acids (dissolved in 100% ethanol) in 0.05 ml of 50 mM HEPES-NaOH buffer, pH 7.4. The final concentration of ethanol in the reaction mixture was 0.5%. These fatty acids and fatty acid derivatives were soluble under the experimental conditions. After 30 min at room temperature, the complex formation of ^125I-TGF- ? and. α2M* was determined by 5% non-denaturing polyacrylamide gel electrophoresis (PAGE) or by 7.5% SDS-PAGE following cross-linking by 0.6 mM DSS. After electrophoresis, the gel was stained with Coomassie blue and analyzed by autoradiography. The ^125I-TGF- ? - ? 2M* complex which co-migrated with free ? 2M* was quantified using a PhosphoImager (Fuji).",
  "data": [
    {"smiles": "CC/C=C\\C/C=C\\C/C=C\\CCCCCCCC(=O)O", "note": "[linolenic acid]", "values": [
      {"measurement": "IC50", "result": "26 ± 3.1", "unit": "µM"}
    ]}
  ]
}
